We go through two compounds from US12269902B2, “Peptide compounds and peptide conjugates for the treatment of cancer through receptor-mediated chemotherapy” (TRANSFERT PLUS, S.E.C., priority 2015, dated 2025).

In data set [1] the test system is ES-2 ovarian cancer cells. Nature of the data set: [3H]-Thymidine incorporation cell proliferation assay, ES-2. The data set is classed as cell-based. The following applies: ES-2 (Ovary); Table 4; 2 or 3 days. As for the experimental part: (§1) The effect of the Docetaxel-Katana peptide conjugate on various cell line proliferations was evaluated and compared to unconjugated Docetaxel (Table 4). IC50 values obtained for the Docetaxel-Katana peptide conjugate were very similar to those of Docetaxel in the cancer cells tested.
(§2) The phytochemical Curcumin, unconjugated and conjugated, was also tested on cancer cell proliferation (FIG. 28). Breast cancer cells (MDA-MB231) were incubated with increasing concentrations of KBC106 or curcumin. After 72 hrs, thymidine incorporation assay was performed to assess the anti-proliferative properties of both molecules. IC50 values were extracted from the anti-proliferative curves. […] Proliferation assay was also performed using different types of cancer cells (ovarian, breast, skin and colorectal cancer cells). IC50 values were calculated from the anti-proliferation curves. In all cases, the Curcumin conjugate (KBC106) had stronger anti-proliferative activity (9-100 fold) than unconjugated Curcumin, as shown in Table 6 below.
(§3) Cancer cells were cultured in 96-well white plates (Perkin Elmer). They were synchronized for 24 hours in serum-deprived medium. After incubation of cells with unconjugated drugs (docetaxel, cabazitaxel, doxorubicin) or with drug-Katana peptide conjugates for 2 or 3 days, all media was aspirated and cells were pulse-labeled for 4 hours at 37° C./[…]/5% CO2 with media containing 2.5 μCi/mL [methyl-3H] thymidine (Perkin Elmer). Cells were washed, fixed, and dried before addition of scintillation fluid (Microscint 0, Perkin Elmer). After 24 hours, cell-associated tritium was quantified by counting on a plate reader (TopCount, Perkin Elmer). Incorporated [3H] thymidine was plotted for each drug concentration.
(Uptake of a labelled nucleoside into DNA is a usual measure of proliferation.)

Data set [2] has as its system MDA-MB-231 breast cancer cells. Nature of the data set: cells. The settings on record: Homo sapiens, MDA-MB-231. As for the experimental part: Breast cancer cells (MDA-MB231) were incubated with increasing concentrations of KBC106 or curcumin. After 72 hrs, thymidine incorporation assay was performed to assess the anti-proliferative properties of both molecules. IC50 values were extracted from the anti-proliferative curves.
The phytochemical Curcumin, unconjugated and conjugated, was also tested on cancer cell proliferation (FIG. 28). Breast cancer cells (MDA-MB231) were incubated with increasing concentrations of KBC106 or curcumin. After 72 hrs, thymidine incorporation assay was performed to assess the anti-proliferative properties of both molecules. IC50 values were extracted from the anti-proliferative curves. […] Proliferation assay was also performed using different types of cancer cells (ovarian, breast, skin and colorectal cancer cells). IC50 values were calculated from the anti-proliferation curves.
as §3

Data set [3] concerns SK-MEL-28 skin cancer cells. The data set can be described thus: [3H]-Thymidine incorporation cell proliferation assay, SK-MEL-28. In kind it is cell-based. The following applies: Homo sapiens; SK-MEL-28 (Skin); Table 4; 2 or 3 days. How it is done:
as §1, §2, §3

The next data set relates to A-375 skin cancer cells. Nature of the data set: [3H]-Thymidine incorporation cell proliferation assay, A-375. The data set is classed as cell-based. The settings on record: Homo sapiens; A-375 (Skin); Table 4; 2 or 3 days. How it is done:
as §1, §2, §3

The target in a further data set is P-gp (MDR1) (Homo sapiens, UniProt P08183). The data set can be described thus: Drug accumulation in MDCK-MDR1 cells with or without Cyclosporin A. The following applies: 50 nM, 1 hr, 37° C., CsA 10 μM. As for the experimental part:
6A. […] 6B. MDCK-MDR1 cells were incubated with 50 nM of either [^14C]-Doxorubicin or [^125I]-Katana peptide-Doxorubicin conjugate (KBB106) for 1 hr at 37° C. in the presence or absence of CsA (10 μM). After the incubation, cells were washed and radioactivity accumulated in cells was quantified. The results were expressed in terms of uptake fmol/mg of protein.
In order to determine whether the anticancer drug-Katana-peptide conjugates could also be P-gp substrates, MDCK-transfected cells with human MDR1 were used (MDCK-MDR1).
Cells were washed three times with PBS and preincubated for 30 min at 37° C. in culture medium without serum with or without the P-gp inhibitor Cyclosporin A (10 μM). Radiolabelled molecules (50 nM) were then added for 60 min. The cells were rapidly washed three times with ice-cold PBS and then lysed in 500 µL of 0.1 M NaOH. The amount of radiolabelled molecules retained in the cells was counted by β-scintillation counting (Packard model 1900 TR). An aliquot of cell lysate was used in parallel to determine cellular protein concentration.

The nature of data set [4]: Tissue distribution of radiolabeled compounds in mice. The following applies: iv bolus, equivalent dose of Docetaxel (Docetaxel 2.2, KBA105 5 mg/kg). How it is done: CD-1 mice were injected with the radiolabeled conjugate at 5 mg/kg via iv bolus injections (21A) or […] of radiolabeled Docetaxel (21B). At the indicated times (1 h, 6 h, 24 h) mice were sacrificed and perfused with saline for 8 min. Tissues were then collected and radioactivity was measured. Results are expressed in terms of ng/g of tissue.
At the indicated times (1, 6 and 24 hours), whole body perfusion was performed for 8 min with saline at a flow rate of 8 ml/min after […] hours iv bolus injections.
After radiolabeling free iodine was remove. Mice were injected with Docetaxel-[^125I]-Katana peptide conjugate at 5 mg/kg. Plasma was collected at the indicated times. After 1, 2 and 24 hours some mice were perfused with saline, sacrificed and tissues were collected. Radioactivity in the plasma and tissues were measured in a radioactivity counter and results were calculated and expressed in terms of […] for the plasma or ng/g of tissues.

The next data set relates to SKOV3 cancer cells. The data set can be described thus: SKOV3 luciferase subcutaneous xenograft tumour model (Docetaxel, KBA-105). The following applies: mice, Docetaxel 10 mg/kg/week, 3 treatments. How it is done:
Mice were implanted in the flank with SKOV3 cancer cells. Tumor growth was monitored by luminescence using the Near Infrared imaging system from Carestream.
Results are expressed in terms of luminescence intensity as a function of post-treatment days.
To further evaluate the in vivo efficacy of the Katana-drug conjugate, SKOV3 cancer cells expressing luciferase were implanted in the mouse flank. […] Tumour imaging was performed on different days by injecting the luciferase substrate luciferin and by using the Xtreme imaging system from Carestream.
Luminescence was then quantified and plotted as a function of days after implantation (FIG. 23).
SKOV3 cancer cells (2.5×10^6 cells) expressing luciferase were implanted in the right flank of mice. Tumour growth was monitored using near infrared (NiR) imaging system from Carestream by injecting the luciferase substrate luciferin. […] Luminescence associated with tumour growth of SKOV3/Luc cancer cells was quantified as a function of post-treatment days with the instrument software.

The subject of data set [5] is MDA-MB231 breast cancer cells. The data set can be described thus: MDA-MB231 luciferase breast subcutaneous tumors (Docetaxel, KBA106). In kind it is in vivo, mice. As for the experimental part: 27A. Mice were implanted in the flank with MDA-MB231 breast cancer cells expressing luciferase. Tumor growth by luminescence was visualized using an in vivo imaging system from Carestream. Mice were treated with vehicle, Docetaxel (15 mg/kg/week) or KBA106 (50 mg/kg/week). Initial luminescence intensity was subtracted. 27B. […] No value was available (N/A) for the mice treated with the vehicle since all mice were then sacrificed because the size of their tumors reached the endpoint limit. 27C. Tumor luminescence results were expressed in terms of percentage of progression on D74 post-treatment compared to initial tumor luminescence. In the Docetaxel group, the tumor luminescence increased by 100% whereas in the KBA106 treated group the luminescence decreased by 100%.
Residual tumor burden was assessed in Docetaxel and Docetaxel conjugate treated mice (FIG. 27). Mice were implanted in the flank with MDA-MB231 breast cancer cells expressing luciferase. Tumor growth by luminescence was visualized using an in vivo imaging system from Carestream. Mice were treated with vehicle, Docetaxel (15 mg/kg/week) or KBA106 (50 mg/kg/week).

For data set [6] the following is noted: free Docetaxel; Assessment report for Docetaxel Teva, European Medicines Agency; cited from earlier work.
In data set [7] the test system is ovarian (SKOV3 and ES-2) cancer cells. The data set can be described thus: Cell migration assay by xCELLigence biosensor system, ovarian cancer cells. The following applies: 2 hours incubation, 2 μM. The data set is classed as cell-based. How it is done:
15A. Cells were incubated for 2 hrs with increasing concentration of Doxorubicin or conjugated Doxorubicin (KBB106) and cell migration was performed. 15B. […] 15C. Progranulin (PGR), a sortilin ligand, also reversed the effect of the Doxorubicin conjugate (KBB106) on ovarian cancer cell (ES-2) migration.
This second cellular assay was also used to screen the different Katana-drug conjugates (FIG. 15). […] However, as shown in FIGS. 15B and 15C, when the cancer cells were incubated with conjugated Doxorubicin (KBB106) in the presence of a sortilin ligand (Neurotensin, Katana peptide or progranulin), the migratory effect of the Doxorubicin conjugate was reversed.
Experiments were carried out using the Real-Time Cell Analyser (RTCA) Dual-Plate (DP) Instrument, the xCELLigence system (Roche Diagnostics, QC). This system was used according to the instructions of the supplier. Then, cells (25 000 cells/well) were seeded in serum-free medium onto a CIM-Plates 16 (Roche diagnostics). […] After 30 min of adhesion, cell migration was monitored every 5 min for 8 h. The impedance value was measured by the RTCA DP Instrument and was expressed as an arbitrary unit called the Cell Index which reflecting the amount of migration-active cells. […]

pIC50: −log10 of the molar value. Non-standard residues stand in square brackets, D forms with d. Residues, ends and D or L forms follow the SMILES beside them. *: point of attachment. X1 = CC(=O)O[C@@]12CO[C@@H]1C[C@H](O)[C@@]1(C)C(=O)[C@H](O)C3=C(C)[C@@H](OC(=O)[C@H](OC(=O)CCC(=O)*)[C@@H](NC(=O)OC(C)(C)C)c4ccccc4)C[C@@](O)([C@@H](OC(=O)c4ccccc4)[C@H]21)C3(C)C; Nle = CCCC[C@H](N)C(=O)O

P-gp (MDR1), sequence (P08183 whole entry): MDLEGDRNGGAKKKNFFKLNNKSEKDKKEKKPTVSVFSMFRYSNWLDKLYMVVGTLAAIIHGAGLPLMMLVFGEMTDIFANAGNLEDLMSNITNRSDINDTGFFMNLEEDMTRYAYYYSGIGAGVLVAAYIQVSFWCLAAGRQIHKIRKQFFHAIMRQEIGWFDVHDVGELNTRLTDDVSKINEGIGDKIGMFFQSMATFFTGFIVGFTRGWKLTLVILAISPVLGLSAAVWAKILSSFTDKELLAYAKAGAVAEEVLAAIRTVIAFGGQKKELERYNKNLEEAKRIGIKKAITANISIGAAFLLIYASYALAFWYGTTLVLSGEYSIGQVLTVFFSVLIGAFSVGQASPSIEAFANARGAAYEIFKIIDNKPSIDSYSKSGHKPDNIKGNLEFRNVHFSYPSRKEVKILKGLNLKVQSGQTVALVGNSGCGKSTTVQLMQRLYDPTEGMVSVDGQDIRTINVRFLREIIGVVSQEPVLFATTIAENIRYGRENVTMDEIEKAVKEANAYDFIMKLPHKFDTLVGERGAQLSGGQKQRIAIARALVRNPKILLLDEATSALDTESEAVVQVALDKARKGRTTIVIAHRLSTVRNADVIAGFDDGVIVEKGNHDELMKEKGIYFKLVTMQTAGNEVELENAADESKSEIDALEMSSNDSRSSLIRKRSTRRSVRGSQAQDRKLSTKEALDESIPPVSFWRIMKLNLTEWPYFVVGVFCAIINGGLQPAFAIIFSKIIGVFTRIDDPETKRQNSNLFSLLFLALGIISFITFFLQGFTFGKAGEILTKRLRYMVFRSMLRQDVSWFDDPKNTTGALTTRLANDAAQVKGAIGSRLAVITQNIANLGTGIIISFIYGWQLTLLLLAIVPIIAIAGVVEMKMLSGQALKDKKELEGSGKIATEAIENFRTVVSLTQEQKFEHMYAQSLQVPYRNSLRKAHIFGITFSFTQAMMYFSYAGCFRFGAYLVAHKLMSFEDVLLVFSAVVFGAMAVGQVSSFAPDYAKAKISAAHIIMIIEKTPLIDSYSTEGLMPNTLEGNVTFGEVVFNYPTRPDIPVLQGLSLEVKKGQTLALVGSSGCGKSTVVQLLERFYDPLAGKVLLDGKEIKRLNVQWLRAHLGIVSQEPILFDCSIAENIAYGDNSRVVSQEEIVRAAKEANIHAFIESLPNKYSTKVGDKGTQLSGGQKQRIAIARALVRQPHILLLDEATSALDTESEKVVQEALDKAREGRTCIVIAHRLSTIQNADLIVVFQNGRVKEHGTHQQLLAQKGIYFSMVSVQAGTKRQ

Regarding `CC(=O)O[C@@]12CO[C@@H]1C[C@H](O)[C@@]1(C)C(=O)[C@H](O)C3=C(C)[C@@H](OC(=O)[C@H](O)[C@@H](NC(=O)OC(C)(C)C)c4ccccc4)C[C@@](O)([C@@H](OC(=O)c4ccccc4)[C@H]21)C3(C)C` [Docetaxel, docetaxel, reference compound], the pIC50 in data set [1] was 8.89; in [2], 9.17; in [3], 9.16; in the data set with A-375 skin cancer cells, 9.04. In addition, the “increase of accumulation in the presence of cyclosporin A” value at P-gp (MDR1) is 2 fold. Besides, the “Area under the curve (AUC1-24)” value in data set [4] (Brain) was 34 ng·h/mL; in data set [4] (Heart), 656 ng·h/mL; in data set [4] (Kidney) it was 1072 ng·h/mL; in [4] (Liver), 652 ng·h/mL; in data set [4] (Lung), 614 ng·h/mL; in data set [4] (Mammary), 823 ng·h/mL. In addition, the “Area under the curve (AUC1-24)” value in [4] (Ovary) was 1523 ng·h/mL; in data set [4] (Spleen), 457 ng·h/mL. The body weight loss with SKOV3 cancer cells is on record as approximately 20%. Also, the “tumor luminescence increase compared to initial tumor luminescence” value in [5] (D74 post-treatment, Docetaxel 15 mg/kg/week) is 100%. The “plasma half-life reported in the literature” value in data set [6] was 1 h.

Turning to `CCCC[C@H](NC(=O)[C@H](CC(N)=O)NC(=O)[C@H](CCCNC(=N)N)NC(=O)[C@@H](NC(=O)CNC(=O)[C@H](C)NC(=O)[C@H](CCCCNC(=O)CCC(=O)O[C@@H](C(=O)O[C@H]1C[C@@]2(O)[C@@H](OC(=O)c3ccccc3)[C@@H]3[C@]4(OC(C)=O)CO[C@@H]4C[C@H](O)[C@@]3(C)C(=O)[C@H](O)C(=C1C)C2(C)C)[C@@H](NC(=O)OC(C)(C)C)c1ccccc1)NC(=O)[C@H](C)NC(=O)[C@H](CCCNC(=N)N)NC(=O)[C@@H](NC(=O)CNC(C)=O)C(C)C)C(C)C)C(=O)N[C@@H](Cc1ccccc1)C(=O)N[C@@H](CCCCNC(=O)CCC(=O)O[C@@H](C(=O)O[C@H]1C[C@@]2(O)[C@@H](OC(=O)c3ccccc3)[C@@H]3[C@]4(OC(C)=O)CO[C@@H]4C[C@H](O)[C@@]3(C)C(=O)[C@H](O)C(=C1C)C2(C)C)[C@@H](NC(=O)OC(C)(C)C)c1ccccc1)C(=O)N[C@@H](CO)C(=O)N[C@@H](CCC(=O)O)C(=O)N[C@@H](CO)C(=O)N[C@@H](Cc1ccc(O)cc1)C(=O)O` [KBA-106, Acetyl-GVRAK(docetaxel)AGVRN(Nle)FK(docetaxel)SESY] (Ac-GVRAK(X1)AGVRN[Nle]FK(X1)SESY-OH; C-terminus assumed), in data set [7], the “effect on cell migration” value is “almost completely abolished the cellular capacity of these cells to migrate”. Further, the “tumor luminescence decrease compared to initial tumor luminescence” value in data set [5] (D74 post-treatment, KBA106 50 mg/kg/week) worked out at 100%. In addition, in data set [5] (Day 74 post-treatment, KBA106 50 mg/kg/week), the “residual tumor burden (remaining luminescence)” value is given as “no luminescence was detectable”.

The term pIC50 denotes −log10 of the IC50, conventionally taken in molar units.
